Measured values taken from PMC12064818, “A general assay platform to study protein pharmacology using ligand-dependent structural dynamics” (Nature Communications, 2025).

Target: T1, FLuc-C-HiBiT (Photinus pyralis, UniProt P08659)
T1 construct: firefly luciferase with C-terminal HiBiT tag, E. coli expressed
Assay: biochemical
Details: enzyme activity, 10 uM ATP; read-out: IC50 or SDR50 (mM) / FLuc E
Method: The enzyme activity of FLuc-N-HiBiT, FLuc-C-HiBiT, and FLuc-C-NLuc was measured similar to P. pyralis firefly luciferase (FLuc) as previously described. […] Compounds and controls were added to each plate as described in Supplementary Data 8 with a Hornet pintool system (Wako Automation). Compounds were incubated with respective enzymes for 30–60 min at room temperature protected from light and covered by solid metal lid to prevent evaporation. […] Luciferin was incubated with FLuc enzyme for 5 min before FLuc activity was then measured on a ViewLux CCD imager (PerkinElmer), with exposure times up to ten seconds with medium to high gain settings. Data were normalized to average no enzyme control as 100% enzyme inhibition and average DMSO neutral control. See Supplementary Table 4 for additional details. As a proof-of-concept target, we appended the sensor protein or corresponding α-peptide to either the N- or C-terminus of the target protein firefly luciferase (FLuc), an ATP cofactor-dependent monooxygenase (Supplementary Fig. 1a) having a broad, well-characterized and accessible ligand pharmacology. For initial characterization of the SDR concept, either NLuc or the 11 amino acid HiBiT tag (α-peptide) and complementary 18 kDa LgBiT subunit (ω-fragment), which self-assemble to reconstitute functional NLuc enzyme[24] were tested. In contrast to the ATP-dependent bioluminescent FLuc enzyme, NLuc generates a bright bioluminescence in an ATP-independent manner from the direct oxidation of furimazine (Supplementary Fig. 1b). […] Next, FLuc-C-NLuc, FLuc-N-HiBiT or FLuc-C-HiBiT were assayed with the same inhibitor in an SDR assay format by monitoring bioluminescence from NLuc or its reconstitution by α-complementation with LgBiT. Measurements of NLuc activity were made either in the absence or presence of the FLuc ATP cofactor, as NLuc bioluminescence is ATP-independent.

T1 sequence (P08659 whole entry, looked up): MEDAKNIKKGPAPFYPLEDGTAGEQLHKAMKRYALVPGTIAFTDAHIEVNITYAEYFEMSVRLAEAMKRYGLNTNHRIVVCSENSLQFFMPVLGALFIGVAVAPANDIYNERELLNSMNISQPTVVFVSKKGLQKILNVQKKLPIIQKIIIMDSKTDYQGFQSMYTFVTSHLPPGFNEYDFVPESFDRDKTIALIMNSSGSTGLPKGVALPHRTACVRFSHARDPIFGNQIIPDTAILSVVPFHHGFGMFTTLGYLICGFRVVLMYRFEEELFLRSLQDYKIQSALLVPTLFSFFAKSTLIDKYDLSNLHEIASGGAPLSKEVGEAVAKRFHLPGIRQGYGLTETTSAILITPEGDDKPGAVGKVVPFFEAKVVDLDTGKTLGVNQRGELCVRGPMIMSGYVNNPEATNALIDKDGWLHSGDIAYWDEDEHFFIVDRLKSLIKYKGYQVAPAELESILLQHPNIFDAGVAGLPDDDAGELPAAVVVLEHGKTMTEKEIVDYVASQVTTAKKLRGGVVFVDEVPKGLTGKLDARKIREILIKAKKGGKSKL

| SMILES | IC50 |
| --- | --- |
| Cc1ccc(C(=O)COC(=O)c2cc(-c3cccs3)nc3ccccc23)cc1 [NCGC00100788-01] | 0.0124 mM |
| COc1ccc(CN(C(=O)c2cc3ccccc3oc2=O)C2CC[S+](=O)([O-])C2)cc1OC (stereo not shown) [NCGC00100996-01] | > 0.03 mM |
| CCCc1ccc(OCc2ccc(C(=O)Nc3ccccc3C(=O)OC)o2)cc1 [NCGC00101032-01] | 0.0124 mM |
| COCCNc1oc(-c2ccc(OC)cc2)nc1C#N [NCGC00101301-01] | 0.0124 mM |
| CC(C)c1ccc(C(=O)Nc2ccc(-c3nc4ccccc4s3)c(Cl)c2)cc1 [NCGC00101984-01] | > 0.03 mM |
| COc1ccc(C(=O)Nc2ccc(-c3nc4ccccc4s3)c(Cl)c2)cc1Cl [NCGC00102002-01] | > 0.03 mM |
| COc1c(C)cccc1C(=O)Nc1ccc(-c2nc3ccccc3s2)c(Cl)c1 [NCGC00102004-01] | > 0.03 mM |
| CCCOc1cccc(C(=O)Nc2ccc(-c3nc4ccccc4s3)c(Cl)c2)c1 [NCGC00102006-02] | 0.0157 mM |
| COc1ccc(-c2nc3ccccc3s2)cc1NC(=O)c1ccccc1OC [NCGC00102097-01] | 0.0111 mM |
| COc1ccc(-c2nc3ccccc3s2)cc1NC(=O)COc1cccc(C)c1 [NCGC00102101-01] | > 0.03 mM |
| COc1ccc(-c2nc3ccccc3s2)cc1NC(=O)c1cc2ccccc2o1 [NCGC00102103-01] | > 0.03 mM |
| Fc1ccc(-c2cn3cc(Cc4ccccc4)sc3n2)cc1 [NCGC00102110-01] | 0.000279 mM |
| COc1cc(OC)cc(C(=O)Nc2cc(-c3nc4ccccc4s3)ccc2OC)c1 [NCGC00102359-01] | > 0.03 mM |
| Cc1cc(-c2nc3ccccc3s2)ccc1NC(=O)c1cc(Cl)ccc1Cl [NCGC00102363-01] | > 0.03 mM |
| COc1ccc(C(=O)Nc2ccc(-c3nc4ccccc4s3)cc2C)cc1Cl [NCGC00102365-01] | > 0.03 mM |
| CCCCOc1ccc(C(=O)Nc2ccc(-c3nc4ccccc4s3)cc2C)cc1 [NCGC00102367-01] | > 0.03 mM |
| O=C(/C=C/c1ccccc1)Nc1cc(-c2nc3cc(Cl)ccc3o2)ccc1Cl [NCGC00102391-01] | > 0.03 mM |
| COc1ccc(C(=O)Nc2cc(C(C)C)c(O)c([S+](=O)([O-])c3ccc(Cl)cc3)c2C)cc1 [NCGC00102536-01] | 0.0124 mM |
| O=C(Nc1ccccc1-c1nc2ccccc2s1)c1ccc(F)cc1 [NCGC00102555-01] | > 0.03 mM |
| COc1cccc(C(=O)Nc2ccccc2-c2nc3ccccc3s2)c1 [NCGC00102557-01] | > 0.03 mM |
| COc1ccc(C(=O)Nc2cc([S+](=O)([O-])c3ccc(Cl)cc3)c(O)c(C)c2C)cc1 [NCGC00102574-01] | > 0.03 mM |
| COc1ccc(C(=O)Nc2ccccc2-c2nc3ccccc3s2)cc1OC [NCGC00102625-01] | > 0.03 mM |
| Nc1nn(-c2ccccc2)nc1C(=O)OCc1ccccc1 [NCGC00102837-01] | > 0.03 mM |
| COc1ccc(Br)cc1C(=O)Nc1nc2ccc(F)cc2s1 [NCGC00102907-01] | > 0.03 mM |
| CN1CCc2nc3sc(C(=O)Nc4cccc(C#N)c4)c(N)c3cc2C1 [NCGC00103003-01] | > 0.03 mM |
| COc1ccc(-c2nc3ccccc3s2)cc1NC(=O)COc1ccc(C)cc1 [NCGC00103030-01] | > 0.03 mM |

| SMILES | IC50 |
| --- | --- |
| COc1ccc(-c2nc3ccccc3s2)cc1NC(=O)c1ccc(F)cc1 [NCGC00103032-01] | > 0.03 mM |
| COc1ccc(-c2nc3ccccc3s2)cc1NC(=O)c1ccccc1F [NCGC00103034-01] | > 0.03 mM |
| COc1ccc(-c2nc3ccccc3s2)cc1NC(=O)COc1ccccc1C [NCGC00103036-01] | > 0.03 mM |
| COc1ccc(-c2nc3ccccc3s2)cc1NC(=O)c1ccc(C#N)cc1F [NCGC00103038-01] | > 0.03 mM |
| CCOc1ccc(C(=O)Nc2cc(-c3nc4ccccc4s3)ccc2OC)cc1 [NCGC00103040-01] | > 0.03 mM |
| N#Cc1ccc(C(=O)Nc2ccccc2-c2nc3ccccc3s2)c(F)c1 [NCGC00103058-01] | > 0.03 mM |
| COc1cc(OC)cc(C(=O)Nc2ccc(-c3nc4ccccc4s3)cc2C)c1 [NCGC00103060-01] | > 0.03 mM |
| Cc1ccc(C(=O)Nc2ccc(-c3nc4ccccc4s3)cc2C)cc1C [NCGC00103062-01] | > 0.03 mM |
| COc1ccc(-c2nnc(SC(C)C(=O)O)o2)cc1 (stereo not shown) [NCGC00103120-01] | 0.014 mM |
| Cc1ccc2oc(-c3ccc(C)c(NC(=O)/C=C/c4ccc(Cl)cc4)c3)nc2c1 [NCGC00103154-01] | 0.0111 mM |
| Cc1ccc(-c2nnc(SCc3ccccc3C)o2)cc1 [NCGC00103155-01] | 0.0111 mM |
| CCc1ccc2oc(-c3ccc(C)c(NC(=O)c4ccc(C#N)cc4F)c3)nc2c1 [NCGC00103160-01] | > 0.03 mM |
| COc1ccc(-n2nc3ccc(NC(=O)c4c(OC)cccc4OC)cc3n2)cc1 [NCGC00103168-01] | > 0.03 mM |
| Cc1ccc(C(=O)Nc2cccc3cccnc23)cc1Cl [NCGC00103195-01] | > 0.03 mM |
| CCC(=O)Nc1cc(-c2nc3ccccc3s2)c(Cl)cc1Cl [NCGC00103217-01] | > 0.03 mM |
| COc1ccc(-c2nc3ccccc3o2)cc1NC(=O)c1cccnc1 [NCGC00103240-01] | 0.0124 mM |
| COc1cc(C(=O)Nc2cc(C)c(O)c(-c3nc4ccccc4s3)c2)cc(OC)c1OC [NCGC00103336-02] | > 0.03 mM |
| Cc1ccc(NCc2nc3ccccc3n2CCOc2ccccc2)cc1 [NCGC00104457-01] | 0.0111 mM |
| CCc1ccccc1NC(=O)c1nnn(-c2ccc(F)cc2)c1C [NCGC00104938-01] | 0.0111 mM |
| Cc1ccc(Cl)cc1-n1nnc(-c2nsc(NC(=O)c3ccccc3Cl)n2)c1C [NCGC00105211-01] | > 0.03 mM |
| O=C(c1cc(-c2ccccc2O)on1)N1CCCCC1 [NCGC00105578-01] | 0.00989 mM |
| Cc1ccc(Nc2c(-c3ccc(N(C)C)cc3)nc3[nH]cnn23)cc1 [NCGC00105887-01] | 0.0124 mM |
| CN(C)c1ccc(-c2nc3ccccn3c2Nc2ccc3c(c2)OCCO3)cc1 [NCGC00106568-01] | 0.0111 mM |
| Oc1ccc(-c2nc3ccccn3c2Nc2ccc3c(c2)OCCO3)cc1 [NCGC00106600-01] | 0.0176 mM |
| COc1ccc(NC(=O)Nc2nnc(C)s2)cc1 [NCGC00106652-01] | 0.0111 mM |

Further compounds by falling IC50, results first:

| IC50 | SMILES |
| --- | --- |
| 0.00989 mM | Cc1cc2nc(-c3cccc(NC(=O)COc4ccc(C(C)C)cc4)c3)oc2cc1C [NCGC00102495-01] |
| 0.00989 mM | COc1ccc(C(=O)Nc2cc(-c3nc4ccccc4s3)ccc2OC)cc1 [NCGC00103028-01] |
| 0.00989 mM | CC(C)c1ccc(C(=O)Nc2cccc3cccnc23)cc1 [NCGC00103193-01] |
| 0.00785 mM | CCOc1ccc(C(=O)Nc2cc(-c3nc4cc(OC)ccc4o3)ccc2C)cc1[N+](=O)[O-] [NCGC00103318-01] |
| 0.00624 mM | COc1ccc(-c2nc3ccccc3s2)cc1NC(=O)c1cccc([N+](=O)[O-])c1C [NCGC00102361-01] |
| 0.00624 mM | CCCOc1ccccc1C(=O)Nc1ccc(-c2nc3ccc(C)cc3s2)cc1 [NCGC00103054-01] |
| 0.00556 mM | CC(=O)NCCNC(=O)c1ccc2c(=O)n(CCc3ccccc3)c(=O)[nH]c2c1 [NCGC00104963-01] |
| 0.00495 mM | Cc1cccc(-c2nnc(SCCC(=O)O)o2)c1 [NCGC00103138-01] |
| 0.00351 mM | Fc1ccc(Cc2cn3cc(-c4ccc(Cl)cc4)nc3s2)cc1 [NCGC00102108-01] |
| 0.00351 mM | Cc1ccc2nc(-c3cccc(NC(=O)CSc4ccc(Cl)cc4)c3)oc2c1 [NCGC00102431-01] |
| 0.00313 mM | COc1cccc2cc(C(=O)Nc3ccc(CC(=O)O)cc3)c(=O)oc12 [NCGC00102789-01] |
| 0.00248 mM | O=C(Nc1cccnc1)c1cc(-c2ccc(Cl)cc2)on1 [NCGC00105781-01] |
| 0.00221 mM | Cc1ccc(-c2nnc(SCc3ccccc3C#N)o2)cc1 [NCGC00103157-01] |
| 0.00157 mM | COc1ccc(-c2nc3ccccc3s2)cc1NC(=O)c1cc(OC)c(OC)c(OC)c1 [NCGC00102099-01] |
| 0.00157 mM | Fc1ccccc1Cc1cn2cc(-c3ccc(Cl)cc3)nc2s1 [NCGC00102106-01] |
| 0.0014 mM | COc1ccc(C(=O)Nc2cc(C)c(O)c(-c3nc4ccccc4s3)c2)cc1OC [NCGC00103306-01] |
| 0.00124 mM | COc1ccc(-c2noc(-c3ccc(C)cc3Cl)n2)cc1OC [NCGC00102273-01] |
| 0.000989 mM | Fc1ccc(-c2cn3cc(Cc4ccccc4Cl)sc3n2)cc1 [NCGC00102130-01] |
| 0.000881 mM | Fc1ccc(Cc2cn3cc(-c4ccc(F)cc4)nc3s2)cc1 [NCGC00102134-01] |
| 0.000881 mM | Brc1ccc(-c2cn3cc(Cc4ccccc4)sc3n2)cc1 [NCGC00102136-01] |
| 0.000785 mM | Clc1ccc(-c2cn3cc(Cc4ccccc4)sc3n2)cc1 [NCGC00102104-01] |
| 0.000495 mM | O=C(O)CCSc1nnc(-c2ccc(Cl)cc2Cl)o1 [NCGC00103142-01] |
| 0.000442 mM | Cc1ccc(Cc2cn3cc(-c4ccccc4)nc3s2)cc1 [NCGC00102098-01] |
| 0.000442 mM | Clc1ccccc1Cc1cn2cc(-c3ccccc3)nc2s1 [NCGC00102100-01] |
| 0.000442 mM | Fc1ccc(Cc2cn3cc(-c4ccccc4)nc3s2)cc1 [NCGC00102102-01] |
